Like-named read-outs stand apart in the source and are kept apart here.
What was measured:
Format in all cases: biochemical
wt-FLT3 = biological target: T1, wt-FLT3 (Homo sapiens, UniProt P36888); assay: FLT3 WT Kinase-Glo assay; settings: FLT3 WT Kinase-Glo, 1 μM ATP; read-out: IC50
T1 construct: FLT3 kinase catalytic domain (residues Y567˜S993); made in house; host or cells: Sf9 insect cells (baculovirus, pBac-PAK8-GST-FLT3-KD plasmid)
T1 sequence (P36888 567-993): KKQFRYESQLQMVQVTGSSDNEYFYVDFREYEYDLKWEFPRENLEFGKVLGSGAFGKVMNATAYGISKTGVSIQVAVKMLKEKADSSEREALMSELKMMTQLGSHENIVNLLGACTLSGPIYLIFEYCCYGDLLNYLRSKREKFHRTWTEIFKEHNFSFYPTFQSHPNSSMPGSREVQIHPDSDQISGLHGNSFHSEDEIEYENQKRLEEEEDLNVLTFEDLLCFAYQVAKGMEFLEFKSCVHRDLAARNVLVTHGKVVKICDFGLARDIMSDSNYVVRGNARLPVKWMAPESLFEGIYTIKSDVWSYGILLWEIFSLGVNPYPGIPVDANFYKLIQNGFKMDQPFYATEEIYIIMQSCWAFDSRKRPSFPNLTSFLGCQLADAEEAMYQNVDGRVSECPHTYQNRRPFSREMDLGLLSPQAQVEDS
Method: GST-FLT3-KD^WT containing the FLT3 kinase catalytic domain (residues Y567˜S993) were expressed in Sf9 insect cells transfected the baculovirus containing pBac-PAK8-GST-FLT3-KD plasmid. […] Following incubation, 50 μl Kinase-Glo Plus Reagent (Promega, Madison, Wis., USA) was added to each well and the mixture was incubated at 25° C. for 20 min. A 70-μL aliquot of each reaction mixture was transferred to a black microtiter plate and the luminescence was measured on Wallac Vector 1420 multilabel counter (PerkinElmer, Shelton, Conn., USA).

VEGFR2 = biological target: T2, VEGFR2 (Homo sapiens, UniProt P35968); assay: VEGFR2 Kinase-Glo kinase assay; settings: 1 μM ATP
T2 construct: GST-VEGFR2 (residues V789-V1356); GST (N); made in house; host or cells: Sf9 insect cells
T2 sequence (P35968 789-1356): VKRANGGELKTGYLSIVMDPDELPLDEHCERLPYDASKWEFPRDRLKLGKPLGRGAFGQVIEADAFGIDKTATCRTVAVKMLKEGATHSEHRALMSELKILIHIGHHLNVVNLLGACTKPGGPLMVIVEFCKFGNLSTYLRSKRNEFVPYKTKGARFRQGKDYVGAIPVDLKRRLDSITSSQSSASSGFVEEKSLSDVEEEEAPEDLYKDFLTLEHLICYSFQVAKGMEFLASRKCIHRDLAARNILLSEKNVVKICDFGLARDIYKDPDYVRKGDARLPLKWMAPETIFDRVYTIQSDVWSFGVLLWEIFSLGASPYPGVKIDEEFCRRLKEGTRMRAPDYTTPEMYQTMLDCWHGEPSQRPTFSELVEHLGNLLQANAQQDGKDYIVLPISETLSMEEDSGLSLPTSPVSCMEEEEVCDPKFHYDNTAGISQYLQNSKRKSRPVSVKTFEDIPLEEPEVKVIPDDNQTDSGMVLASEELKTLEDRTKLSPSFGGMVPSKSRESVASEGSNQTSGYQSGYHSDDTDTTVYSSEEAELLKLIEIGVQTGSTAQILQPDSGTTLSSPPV
Method: (§1) The recombinant GST-VEGFR1 (residues R781-I1338) or GST-VEGFR2 (residues V789-V1356) containing kinase domain were expressed in Sf9 insect cells. The kinase assay were carried out in 96-well plates with tested compound in a final volume of 50 μl reaction at 30° C. for 120 minutes with following components: 25 mM HEPES pH 7.4, 10 mM MgCl2, 4 mM MnCl2, 0.5 mM Na3VO4, 2 mM DTT, 0.02% Triton X100, 0.01% BSA, 1 μM ATP, 2 μM polyGlu4:Tyr peptide, 50˜100 ng recombinant VEGFR1 or VEGFR2. Following incubation, 50 μl Kinase-Glo Plus Reagent (Promega, Madison, Wis., USA) was added to each well and the mixture was incubated at 25° C. for 20 min. A 70-μL aliquot of each reaction mixture was transferred to a black microtiter plate and the luminescence was measured on Wallac Vector 1420 multilabel counter (PerkinElmer, Shelton, Conn., USA).

VEGFR1 = biological target: T3, VEGFR1 (Homo sapiens, UniProt P17948); assay: VEGFR1 Kinase-Glo kinase assay; settings: 1 μM ATP
T3 construct: GST-VEGFR1 (residues R781-I1338); GST (N); made in house; host or cells: Sf9 insect cells
T3 sequence (P17948 781-1338): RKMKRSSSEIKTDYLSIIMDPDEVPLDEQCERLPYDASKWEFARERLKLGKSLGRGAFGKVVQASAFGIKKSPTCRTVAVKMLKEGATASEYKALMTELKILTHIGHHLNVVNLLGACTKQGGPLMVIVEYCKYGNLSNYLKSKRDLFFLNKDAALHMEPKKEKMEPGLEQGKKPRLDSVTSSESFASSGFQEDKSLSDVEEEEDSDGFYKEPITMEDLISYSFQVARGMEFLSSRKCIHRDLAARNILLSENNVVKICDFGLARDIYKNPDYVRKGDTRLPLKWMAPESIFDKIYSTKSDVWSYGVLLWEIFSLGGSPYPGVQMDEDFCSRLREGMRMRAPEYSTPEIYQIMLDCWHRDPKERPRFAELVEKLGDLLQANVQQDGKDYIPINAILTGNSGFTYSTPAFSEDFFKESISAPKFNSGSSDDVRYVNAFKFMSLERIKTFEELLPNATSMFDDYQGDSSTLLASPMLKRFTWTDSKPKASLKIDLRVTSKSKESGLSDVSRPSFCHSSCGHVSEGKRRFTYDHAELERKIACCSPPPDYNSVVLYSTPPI
Method: as §1

[1] = VEGFR2 assay, bound in μM, read-out: IC50
[2] = VEGFR2 assay, ranges in nM, read-out: IC50
[3] = IC50, VEGFR2 assay, bound in μM
[4] = IC50, VEGFR2 assay, ranges in nM
[5] = IC50, VEGFR1 assay, bound in μM
[6] = VEGFR1 assay, bound in nM, read-out: IC50
[7] = VEGFR1 assay, bound in μM, read-out: IC50

| SMILES | IC50 (wt-FLT3) | IC50 (VEGFR2; [1]) | IC50 (VEGFR2; [2]) | also measured |
| --- | --- | --- | --- | --- |
| CN1CCN(c2ccc(C(=O)Nc3cc(-c4ccc(CNC(=O)Oc5ccccc5)cc4)n[nH]3)cc2)CC1 [Compound 82, Phenyl-N-[4-(5-[4-(4-methylpiperazino)benzoyl]amino-1H-3-pyrazolyl)benzyl]carbamate] | 1 to 20 nM | – | – | IC50 (VEGFR2; [3]): < 1 µM; IC50 (VEGFR2; [4]): 0.055 to 0.4 µM; IC50 (VEGFR1; IC50, VEGFR1 assay, bound in nM): < 100 nM; IC50 (VEGFR1; [5]): < 1000 nM |
| CN1CCN(c2ccc(C(=O)Nc3cc(-c4ccc(NC(=O)Nc5cc(C(C)(C)C)on5)cc4)n[nH]3)cc2)CC1 [Compound 37, N1-(3-4-[([5-(tert-butyl)-3-isoxazolyl]aminocarbonyl)amino]phenyl-1H-5-pyrazolyl)-4-(4-methylpiperazino)benzamide] | 1 to 20 nM | < 1 µM | 0.001 to 0.055 µM | IC50 (VEGFR1; [6]): < 100 nM; IC50 (VEGFR1; [7]): < 1000 nM |
| Cc1nc(Nc2cc(-c3ccc(CNC(=O)OCc4ccccc4)cc3)n[nH]2)cc(N2CCN(C)CC2)n1 [Compound 96, Benzyl-N-[4-(5-[2-methyl-6-(4-methylpiperazino)-4-pyrimidinyl]amino-1H-3-pyrazolyl)benzyl]carbamate] | 1 to 20 nM | < 1 µM | 0.055 to 0.4 µM | IC50 (VEGFR1; [7]): < 1000 nM |
| CN1CCN(c2ccc(C(=O)Nc3cc(-c4ccc(NC(=O)Oc5ccccc5)cc4)n[nH]3)cc2)CC1 [Compound 68, Phenyl-N-[4-(5-[4-(4-methylpiperazino)benzoyl]amino-1H-3-pyrazolyl)phenyl]carbamate] | 1 to 20 nM | – | – | IC50 (VEGFR2; [3]): < 1 µM; IC50 (VEGFR2; [4]): 0.055 to 0.4 µM; IC50 (VEGFR1; [5]): < 1000 nM |
| Cc1nc(Nc2cc(-c3ccc(CNC(=O)OCc4cccnc4)cc3)n[nH]2)cc(N2CCN(C)CC2)n1 [Compound 101, 3-Pyridylmethyl-N-[4-(5-[2-methyl-6-(4-methylpiperazino)-4-pyrimidinyl]amino-1H-3-pyrazolyl)benzyl]carbamate] | 1 to 20 nM | – | – | – |
| CN1CCN(Cc2ccc(C(=O)Nc3cc(-c4ccc(CNC(=O)OCc5ccccc5)cc4)n[nH]3)cc2)CC1 [Compound 77, Benzyl-N-4-[5-(4-[(4-methylpiperazino)methyl]benzoylamino)-1H-3-pyrazolyl]benzylcarbamate] | 1 to 20 nM | – | – | – |
| O=C(Nc1cc(-c2cccc(NS(=O)(=O)c3ccccc3)c2)n[nH]1)c1ccc(OCCN2CCCC2)cc1 [Compound 24, N1-(3-3-[(phenylsulfonyl)amino]phenyl-1H-5-pyrazolyl)-4-(2-tetrahydro-1H-1-pyrrolylethoxy)benzamide] | 1 to 20 nM | < 1 µM | 0.055 to 0.4 µM | IC50 (VEGFR1; [7]): < 1000 nM |
| O=C(NCc1ccc(-c2cc(NC(=O)c3ccc(OCCN4CCCC4)cc3)[nH]n2)cc1)OCc1ccccc1 [Compound 73, Benzyl-N-[4-(5-[4-(2-tetrahydro-1H-1-pyrrolylethoxy)benzoyl]amino-1H-3-pyrazolyl)benzyl]carbamate] | 1 to 20 nM | < 1 µM | 0.055 to 0.4 µM | IC50 (VEGFR1; [6]): < 100 nM; IC50 (VEGFR1; [7]): < 1000 nM |
| Cc1cc(-c2cc(NC(=O)c3ccc(N4CCN(C)CC4)cc3)[nH]n2)ccc1N [Compound 6, N1-[3-(4-amino-3-methylphenyl)-1H-5-pyrazolyl]-4-(4-methylpiperazino)benzamide] | 1 to 20 nM | < 1 µM | 0.055 to 0.4 µM | – |
| Cc1nc(Nc2cc(-c3ccc(CNC(=O)OCc4ccccc4)cc3)n[nH]2)cc(N2CCN(CCO)CC2)n1 [Compound 97, Benzyl-N-4-[5-(6-[4-(2-hydroxyethyl)piperazino]-2-methyl-4-pyrimidinylamino)-1H-3-pyrazolyl]benzylcarbamate] | 1 to 20 nM | < 1 µM | 0.055 to 0.4 µM | – |
| Cc1cc(COC(=O)NCc2ccc(-c3cc(NC(=O)c4ccc(N5CCN(C)CC5)cc4)[nH]n3)cc2)no1 [Compound 75, (5-Methyl-3-isoxazolyl)methyl-N-[4-(5-[4-(4-methylpiperazino)benzoyl]amino-1H-3-pyrazolyl)benzyl]carbamate] | 1 to 20 nM | < 1 µM | 0.055 to 0.4 µM | IC50 (VEGFR1; [7]): < 1000 nM |

Continued, in another order:

| IC50 (wt-FLT3) | IC50 (VEGFR2; [1]) | IC50 (VEGFR2; [2]) | SMILES | also measured |
| --- | --- | --- | --- | --- |
| 1 to 20 nM | – | – | O=C(NCc1ccc(-c2cc(NC(=O)c3ccc(OCCN4CCOCC4)cc3)[nH]n2)cc1)OCc1cccnc1 [Compound 80, 3-Pyridylmethyl-N-[4-(5-[4-(2-morpholinoethoxy)benzoyl]amino-1H-3-pyrazolyl)benzyl]carbamate] | – |
| 1 to 20 nM | < 1 µM | 0.001 to 0.055 µM | CN1CCN(c2ccc(C(=O)Nc3cc(-c4ccc(CNC(=O)Nc5ccccc5)cc4)n[nH]3)cc2)CC1 [Compound 51, N1-[3-(4-[(anilinocarbonyl)amino]methylphenyl)-1H-5-pyrazolyl]-4-(4-methylpiperazino)benzamide] | – |
| 1 to 20 nM | < 1 µM | 0.001 to 0.055 µM | Cc1cc(NC(=O)NCc2ccc(-c3cc(NC(=O)c4ccc(OCCN5CCCC5)cc4)[nH]n3)cc2)no1 [Compound 57, N1-(3-4-[([(5-methyl-3-isoxazolyl)amino]carbonylamino)methyl]phenyl-1H-5-pyrazolyl)-4-(2-tetrahydro-1H-1-pyrrolylethoxy)benzamide] | – |
| 1 to 20 nM | – | – | CN1CCN(c2ccc(C(=O)Nc3cc(-c4ccc(N)cc4)n[nH]3)cc2)CC1 [Compound 2, N1-[3-(4-aminophenyl)-1H-5-pyrazolyl]-4-(4-methylpiperazino)benzamide] | – |
| 1 to 20 nM | – | – | Cc1nc(Nc2cc(-c3ccc(CNC(=O)OCc4cc(C)on4)cc3)n[nH]2)cc(N2CCN(C)CC2)n1 [Compound 99, (5-Methyl-3-isoxazolyl)methyl-N-[4-(5-[2-methyl-6-(4-methylpiperazino)-4-pyrimidinyl]amino-1H-3-pyrazolyl)benzyl]carbamate] | – |
| 1 to 20 nM | – | – | CN1CCN(c2ccc(C(=O)Nc3cc(-c4ccc(CNC(=O)c5ccccc5)cc4)n[nH]3)cc2)CC1 [Compound 11, N1-(3-4-[(benzoylamino)methyl]phenyl-1H-5-pyrazolyl)-4-(4-methylpiperazino)benzamide] | – |
| 1 to 20 nM | < 1 µM | 0.001 to 0.055 µM | CC(C)(C)c1cc(NC(=O)NCc2ccc(-c3cc(NC(=O)c4ccc(OCCN5CCOCC5)cc4)[nH]n3)cc2)no1 [Compound 60, N1-[3-(4-[([5-(tert-butyl)-3-isoxazolyl]aminocarbonyl)amino]methylphenyl)-1H-5-pyrazolyl]-4-(2-morpholinoethoxy)benzamide] | – |

From patent US9255072B2, “Pyrazole compounds and thiazole compounds as protein kinases inhibitors” (National Health Rsearch Institutes, priority 2011, dated 2016)
